Reference: patent US7005417B1, “Echinocandin derivatives, method for preparing same and use as antifungal agents” (Aventis Pharma S.A., priority 1999, dated 2006)

Tested on: Glucan Synthase of Candida albicans
Assay: Inhibition of the Glucan Synthase of Candida albicans
Format: biochemical
Details: Candida albicans membranes, 14C-UDP glucose, 25° C. for 1 hour
Procedure: A—Inhibition of the Glucan Synthase of Candida albicans
Candida albicans membranes were purified according to the process described by Tang et al Antimicrob. Agents Chemother 35, 99–103, 1991. 22.5 μg of membrane proteins are incubated in a mixture of 2 Mm of 14C-UDP glucose (specific activity=0.34 mCi./mmol, 50 μg of α-amylase, 1 Mm of dithiotreitol (DTT), 1 Mm EDTA, 100 Mm NaF, 7 μM of GTP-γ-S, 1 M of sucrose and 50 Mm of Tris-HCL (pH 7.8) in a volume of 100 μl. The medium is incubated at 25° C. for 1 hour and the reaction is terminated by adding TCA at a final concentration of 5%. The reaction mixture is transferred onto a pre-humidified glass fibre filter. The filter is washed, dried and its radioactivity is counted.
Mulundocandine is used as a positive control.
Control of the vehicle is carried out with the same quantity of 1% DMSO.

1-[4-[(2-aminoethyl)amino]-N2-[[4-[5-[4-pentyloxy)-phenyl]-3-isoxazolyl]-phenyl]-carbonyl]-L-ornithine]-4-(4-hydroxyphenyl)-L-threonine]-5-L-serine-echinocandine B [Example 1]
Inhibition of the Glucan Synthase of Candida albicans: good activity
